Tests used:
[1] = biological target: T1, human adenosine-A1 receptors (Homo sapiens, UniProt P30542); assay: In vitro affinity for human adenosine-A1 receptors (radioligand [3H]DPCPX); assay type: binding; details: human recombinant receptors expressed in CHO cells; for Ki: read-out: Adenosine receptor affinity (binding) A1 pKi (converted)
T1 construct: expressed in transfected cells; host or cells: CHO cells
T1 sequence (P30542 1-326): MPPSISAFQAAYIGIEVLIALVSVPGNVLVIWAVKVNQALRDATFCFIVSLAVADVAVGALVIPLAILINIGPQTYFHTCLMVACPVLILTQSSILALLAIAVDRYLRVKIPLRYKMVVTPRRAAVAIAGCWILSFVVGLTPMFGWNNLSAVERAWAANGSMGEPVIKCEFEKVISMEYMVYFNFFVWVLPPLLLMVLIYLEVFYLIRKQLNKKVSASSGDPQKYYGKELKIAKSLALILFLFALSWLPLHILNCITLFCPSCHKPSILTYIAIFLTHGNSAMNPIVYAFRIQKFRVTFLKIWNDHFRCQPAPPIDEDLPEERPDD
Description: Affinity of the compounds for human adenosine-A1 receptors was determined using the receptor binding assay described by A. Townsend-Nicholson and P. R. Schofield (Biol. Chem., 269, 2373, 1994), using human recombinant receptors expressed in CHO cells, and [^3H]DPCPX as radioligand.

[2] = biological target: T2, human adenosine-A2A receptors (Homo sapiens, UniProt P29274); assay: In vitro affinity for human adenosine-A2A receptors (radioligand [3H]CGS 21680); assay type: binding; details: human recombinant receptors expressed in HEK-293 cells; for Ki: read-out: Adenosine receptor affinity (binding) A2A pKi (converted)
T2 construct: expressed in transfected cells; host or cells: HEK-293 cells
Description: Affinity of the compounds for human adenosine-A2A receptors was determined using the receptor binding assay described by D. R. Luthin et al., (Mol. Pharmacol., 47, 307, 1995), using human recombinant receptors expressed in HEK-293 cells, and [^3H]CGS 21680 as radioligand.

[3] = biological target: T3, human Adenosine A3 receptor (Homo sapiens, UniProt P0DMS8); assay: In vitro affinity for human adenosine-A3 receptors (radioligand [125I]-AB-MECA); assay type: binding; design: expressed in transfected cells; host or cells: HEK 293 cells (membrane preparations); details: membranes of HEK 293 cells stably expressing human A3, [125I]-AB-MECA, 22° C., 90 minutes; for Ki: read-out: Adenosine receptor affinity (binding) A3 pKi (converted)
T3 sequence (P0DMS8 1-318): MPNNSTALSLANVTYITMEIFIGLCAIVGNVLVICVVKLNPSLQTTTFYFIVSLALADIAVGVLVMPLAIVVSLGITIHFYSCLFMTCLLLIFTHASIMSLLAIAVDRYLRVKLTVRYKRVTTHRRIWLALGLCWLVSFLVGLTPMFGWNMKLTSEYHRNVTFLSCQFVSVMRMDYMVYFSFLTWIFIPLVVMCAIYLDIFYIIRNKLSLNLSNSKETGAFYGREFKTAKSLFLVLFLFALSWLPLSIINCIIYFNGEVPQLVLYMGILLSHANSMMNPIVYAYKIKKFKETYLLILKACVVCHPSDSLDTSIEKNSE
Description: Affinity of the compounds for human adenosine-A3 receptors was determined using the receptor binding assay described by C. A. Salvatore et al.: “Molecular cloning and characterization of the human A3 adenosine receptor”, Proc. Natl. Acad. Sci. USA, 90, 10365-10369, 1993. Briefly, membrane preparations were obtained from human recombinant (HEK 293) cells in which the human adenosine-A3 receptor was stably expressed. […] Separation of bound radioactivity from free was done by filtration through Packard GF/B glass fiber filters with several washings with ice-cold buffer using a Packard cell harvester. Bound radioactivity was measured with a scintillation counter (Topcount, Packard) using a liquid scintillation cocktail (Microscint 0, Packard). […] Determination of In Vitro Functional Activity on Human Adenosine A3 Receptors Using an Aequorin-based Assay

[4] = biological target: T3, human Adenosine A3 receptor; assay: In vitro functional activity on human adenosine A3 receptors using an Aequorin-based assay; assay type: cell-based; design: A. et al. (Acc. Number GenBank: L22607); host or cells: CHO-K1 cells stably expressing mitochondrially targeted aequorin and Galpha16; details: hA3-Aequorin CHO-K1 cells; for EC50: agonist mode, concentrations up to 10^−5 M, read-out: Functional activity A3 agonism pEC50 (converted); for Kb: antagonist mode, N6-benzyl-NECA as the agonist, read-out: Functional activity A3 antagonism pA2 (converted)
Excerpt: A stable monoclonal hA3-Aequorin cell line was provided by Euroscreen. The coding region encoding the human Adenosine A3 receptor was amplified by polymerase chain reaction (PCR), using human lung cDNA as template. The PCR product was ligated in the expression vector pEFIN3 (Invitrogen), and the complete sequence of the insert was then established. […] A. et al. (Acc. Number GenBank: L22607). The expression plasmid containing the coding sequence of the human Adenosine A3 receptor was transfected in CHO-K1 cells stably expressing mitochondrially targetted Aequorin and Gα16. Resistant clones were selected in the presence of 400 μg/ml G418 and isolated by limiting dilution. […] The hA3-Aequorin cells express mitochondrially targetted apo-Aequorin. Cells have to be loaded with coelenterazine, in order to reconstitute active Aequorin. After binding of agonists to the hA3 receptor, the intracellular calcium concentration increases, which leads to a luminescent response. Binding of calcium to the apo-Aequorin/coelenterazine complex leads to an oxidation reaction of coelenterazine, which results in the production of apo-Aequorin, coelenteramide, CO2 and light (λmax 469 nm). This luminescent response is dependent on the agonist concentration.
Assay-protocol: • Dilute the loaded cells 18× in Dulbecco's medium without PhenolRed (Gibco BRL), pre-heated to 37° C., resulting in a concentration of 2.8*10^5 cells/ml. • Stir for 1 hour at room temperature. • Add 10 μl compound or control per well in white 96-well plates. • Add 90 μl of diluted cells (2.5*10^4 cells/well). • Measure chemoluminescence immediately for 20 seconds. • In antagonist mode 50 μl 10^−6 N6-benzyl-NECA is added as the agonist. • Measure chemoluminescence immediately for 20 seconds using the MicroBetaJet (PerkinElmer).

T2 sequence (P29274 whole entry): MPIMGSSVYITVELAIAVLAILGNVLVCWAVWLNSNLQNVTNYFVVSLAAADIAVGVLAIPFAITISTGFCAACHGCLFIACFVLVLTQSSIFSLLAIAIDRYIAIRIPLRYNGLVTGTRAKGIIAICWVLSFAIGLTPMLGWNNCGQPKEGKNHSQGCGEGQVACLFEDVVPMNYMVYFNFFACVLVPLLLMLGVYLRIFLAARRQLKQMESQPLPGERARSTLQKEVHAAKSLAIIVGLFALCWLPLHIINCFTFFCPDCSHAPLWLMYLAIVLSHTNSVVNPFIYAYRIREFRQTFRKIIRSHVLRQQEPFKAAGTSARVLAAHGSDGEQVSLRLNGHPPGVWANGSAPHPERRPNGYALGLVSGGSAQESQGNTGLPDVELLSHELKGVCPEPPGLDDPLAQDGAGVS

SMILES	Ki [1]	Ki [2]	Ki [3]	EC50 [4]	Kb [4]	Adenosine receptor affinity (binding) A1 pKi [1]	Adenosine receptor affinity (binding) A2A pKi [2]	Adenosine receptor affinity (binding) A3 pKi [3]
Cn1cnc2c(C(F)(F)F)nc([N+](=O)[O-])nc21 [Compound 1, 2-nitro-6-trifluoromethyl-9-methyl purine]	> 10 µM	> 10 µM	3.98 µM					
OC[C@H]1O[C@@H](n2cnc3c(C(F)(F)F)nc(N4CCCCC4)nc32)[C@H](O)[C@@H]1O [Compound 3, 2-piperidinyl-6-trifluoromethyl-9-β-D-ribofuranosyl purine]						<5.0	<5.0	5.4
Cn1c(N2CCCCC2)nc2c(C(F)(F)F)nc(NCCc3ccccc3)nc21 [Compound 16, 8-N-piperidinyl-6-trifluoromethyl-9-methyl-2-phenethyl amino purine]	> 10 µM	15.8 µM	3.98 µM					
Cn1c(-c2ccccc2)nc2c(C(F)(F)F)nc(NCCc3ccccc3)nc21 [Compound 19, 8-phenyl-6-trifluoromethyl-9-methyl-2-phenethylamino purine]	> 10 µM	7.94 µM	2 µM					
Cn1c(-c2cccc(F)c2)nc2c(C(F)(F)F)nc(NCCc3ccccc3)nc21 [Compound 20, 8-(3-fluorophenyl)-6-trifluoromethyl-9-methyl-2-phenethylamino purine]	7.94 µM	> 10 µM	1 µM					
Cn1c(/C=C/c2ccccc2)nc2c(C(F)(F)F)nc(NCCc3ccccc3)nc21 [Compound 21, 8-E-styryl-6-trifluoromethyl-9-methyl-2-phenethylamino purine]	> 10 µM	> 10 µM	3.98 µM					
Cn1c(/C=C\c2ccccc2)nc2c(C(F)(F)F)nc(NCCc3ccccc3)nc21 [Compound 22, 8-Z-styryl-6-trifluoromethyl-9-methyl-2-phenethylamino purine]	> 10 µM	> 10 µM	2 µM	> 10 µM	1 µM			
Cn1c(C#Cc2ccccc2)nc2c(C(F)(F)F)nc(NCCc3ccccc3)nc21 [Compound 23, 8-phenylacetylene-6-trifluoromethyl-9-methyl-2-phenethylamino purine]	> 10 µM	> 10 µM	0.501 µM					
Cn1c(/C=C/c2ccc(C(F)(F)F)cc2)nc2c(C(F)(F)F)nc(NCCc3ccccc3)nc21 [Compound 24, 8-E-(4-trifluoromethylstyryl)-6-trifluoromethyl-9-methyl-2-phenethylamino purine]	> 10 µM	> 10 µM	3.98 µM					
Cn1c(/C=C\c2ccc(C(F)(F)F)cc2)nc2c(C(F)(F)F)nc(NCCc3ccccc3)nc21 [Compound 25, 8-Z-(4-trifluoromethylstyryl)-6-trifluoromethyl-9-methyl-2-phenethylamino purine]	> 10 µM	> 10 µM	5.01 µM					

Further lines, with some results ahead:

Ki [1]	Ki [2]	Ki [3]	EC50 [4]	Kb [4]	SMILES	Adenosine receptor affinity (binding) A1 pKi [1]	Adenosine receptor affinity (binding) A2A pKi [2]	Adenosine receptor affinity (binding) A3 pKi [3]
> 10 µM	> 10 µM	15.8 µM	> 10 µM	0.2 µM	OC[C@H]1O[C@@H](n2cnc3c(C(F)(F)F)nc(N4CCC(O)CC4)nc32)[C@H](O)[C@@H]1O [Compound 4, 2-(4-OH-piperidinyl)-6-trifluoromethyl-9-β-D-ribofuranosyl purine]			
> 10 µM	> 10 µM	2.51 µM	> 10 µM	2 µM	Cn1c(I)nc2c(C(F)(F)F)nc(NCCc3ccccc3)nc21 [Compound 12, 8-iodo-6-trifluoromethyl-9-methyl-2-phenethylamino purine]			
> 10 µM	7.94 µM	1.26 µM	> 10 µM	0.158 µM	Cn1c(-c2ccco2)nc2c(C(F)(F)F)nc(NCCc3ccccc3)nc21 [Compound 13, 8-(furan-2-yl)-6-trifluoromethyl-9-methyl-2-phenethylamino purine]			
6.31 µM	> 10 µM	1.58 µM	> 10 µM	1.58 µM	Cn1c(-c2cccs2)nc2c(C(F)(F)F)nc(NCCc3ccccc3)nc21 [Compound 14, 8-(thien-2-yl)-6-trifluoromethyl-9-methyl-2-phenethylamino purine]			
> 10 µM	> 10 µM	3.16 µM			Cn1c(N2CCCC2)nc2c(C(F)(F)F)nc(NCCc3ccccc3)nc21 [Compound 15, 8-N-pyrrolidinyl-6-trifluoromethyl-9-methyl-2-phenethylamino purine]			
> 10 µM	> 10 µM	1.58 µM			Cn1c(N2CCOCC2)nc2c(C(F)(F)F)nc(NCCc3ccccc3)nc21 [Compound 17, 8-N-morpholinyl-6-trifluoromethyl-9-methyl-2-phenethylamino purine]			
3.16 µM	1.26 µM	0.631 µM			Cn1c(NC2CCCC2)nc2c(C(F)(F)F)nc(NCCc3ccccc3)nc21 [Compound 18, 8-cyclopentylamino-6-trifluoromethyl-9-methyl-2-phenethylamino purine]			
5.01 µM	3.16 µM	0.01 µM			OC[C@H]1O[C@@H](n2cnc3c(C(F)(F)F)nc(NCCc4ccc(O)cc4)nc32)[C@H](O)[C@@H]1O [Compound 27, 2-(4-hydroxy-phenethylamino)-6-trifluoromethyl-9-β-D-ribo-furanosyl purine]			
2.51 µM	> 10 µM	0.0251 µM			CC(C)(C)OC(=O)OCn1cnc2c(C(F)(F)F)nc(NCCc3ccccc3)nc21 [Compound 28, 6-trifluoromethyl-2-phenetylamino-9-BocOM-purine]			
1.58 µM	3.16 µM	0.158 µM			OC[C@H]1O[C@@H](n2cnc3c(C(F)(F)F)nc(OCCc4ccccc4)nc32)[C@H](O)[C@@H]1O [Compound 30, 2-phenethyloxy-6-trifluoromethyl-9-β-D-ribofuranosyl purine]			

— patent US7371737B2, “2-substituted-6-trifluoromethyl purine derivatives with adenosine-A3 antagonistic activity” (Solvay Pharmaceuticals, B.V., priority 2004, dated 2008)
